Earlier results, collected in patent publication US20260014083A1, “Orally Administrable Pharmaceutical Dosage Form Comprising Lanthanum and Its Use in a Method Of Treatment of Hyperoxaluria” (AMGMT, priority 2022, published 2026).
Read-outs that look alike come from different tables or passages of the source.

How the values were obtained:
rat = conditions: oxalate loading
[1] = in vivo
[2] = system: patients with enteric hyperoxaluria

**Q.** With `O=C([O-])[O-].[Ca+2]` [calcium carbonate] as the molecule, how does the calciuria (current powerful phosphate binders) read?
**A.** increased calciuria

**Q.** What does the source list for `O=C([O-])[O-].O=C([O-])[O-].O=C([O-])[O-].[La+3].[La+3]` [Lanthanum carbonate, lanthanum carbonate]?
**A.** CaOx crystalluria (rat): decrease; calciuria (rat): minor increase; oxaluria (rat): decrease; phosphaturia (rat): striking increase

**Q.** For `[Al]` [aluminum], which calciuria (in vivo) is on record?
**A.** increased calciuria

**Q.** For `[La]` [lanthanum], which gastro-intestinal absorption [1] is on record?
**A.** 0.01%

B1: reloxaliase: an oral enzyme therapeutic (Allena Pharmaceuticals) (protein, UniProt O34714 1-385, looked up)
Oxalate decarboxylase OxdC: MKKQNDIPQPIRGDKGATVKIPRNIERDRQNPDMLVPPETDHGTVSNMKFSFSDTHNRLEKGGYAREVTVRELPISENLASVNMRLKPGAIRELHWHKEAEWAYMIYGSARVTIVDEKGRSFIDDVGEGDLWYFPSGLPHSIQALEEGAEFLLVFDDGSFSENSTFQLTDWLAHTPKEVIAANFGVTKEEISNLPGKEKYIFENQLPGSLKDDIVEGPNGEVPYPFTYRLLEQEPIESEGGKVYIADSTNFKVSKTIASALVTVEPGAMRELHWHPNTHEWQYYISGKARMTVFASDGHARTFNYQAGDVGYVPFAMGHYVENIGDEPLVFLEIFKDDHYADVSLNQWLAMLPETFVQAHLDLGKDFTDVLSKEKHPVVKKKCSK
modifications: crosslinked enzyme crystals
**Q.** Which results are given for B1?
**A.** least square mean treatment difference ([2]; versus placebo, p=0.004): −14.3%; mean reduction in average 24-hour urinary oxalate excretion ([2]; weeks 1-4, placebo 9.7%): 22.6%
